One test deals with daratumumab. Briefly: Absorbance based DAR analysis of FITC conjugation to antibody. In kind it is biochemical. The procedure:
(§1) In some embodiments, reaction partners, e.g., compounds of formula R-I or salts thereof ere dissolved in DMSO to 5 mM stock solution.
(§2) In some embodiments, reactions are set up with 300 micrograms of antibody. In some embodiments, various conditions, including various buffers, reagent equivalents, reaction time, reaction temperature and reaction concentrations can be utilized.
As an example, one reaction is 300 microliter reaction with 1 mg/mL of antibody in PBS. Peptide I-45 (1 microliter of 5 mM stock in DMSO, 2.5 molar equivalents relative to daratumumab) was diluted in 284 microliters of PBS buffer (10 mM phosphate, 150 mM sodium chloride, pH 7.4), then 15 microliters of daratumumab (20 mg/mL stock) was added to the reaction mixture followed by incubation at room temperature in the dark. After 4 h reaction buffer was exchanged using Amicon Ultra centrifuge filter (30 KDa MWCO, 0.5 mL volume). First, glycine buffer (100 mM, pH 2.1) was used for buffer exchange to ensure dissociation of target binding moieties after reaction. Then, phosphate buffer saline (pH 7.4) was used for further buffer exchange and storage.
In another example, a reaction is 300 microliter reaction with 1 mg/mL of antibody in borate buffer. Peptide I-44 (1.2 microliter of 5 mM stock in DMSO, 3.0 molar equivalents relative to daratumumab) was diluted in 284 microliters of Borate buffer (100 mM borate, pH 8.3), then 15 microliters of daratumumab (20 mg/mL stock) was added to the reaction mixture followed by incubation at room temperature in the dark. After 20 h reaction buffer was exchanged using Amicon Ultra centrifuge filter (30 KDa MWCO, 0.5 mL volume). First, glycine buffer (100 mM, pH 2.1) was used for buffer exchange to ensure dissociation of target binding moieties after reaction. Then, phosphate buffer saline (10 mM phosphate, 150 mM sodium chloride, pH 7.4) was used for further buffer exchange and storage.
(§3) In some embodiments, a useful technology is absorbance based DAR analysis. DAR (ratio of moieties of interest and target agent moieties (e.g., antibody agent moieties) was calculated for various antibody conjugates, e.g., in various reagent screening/assessment methods. Various agents comprising target binding moieties were assessed for conjugation efficiency as reaction partners with targets, e.g. protein agents such as antibody agents, compared to reagents with the same reactive groups but without target binding moieties. In various ratio determination ‘Drug’/moiety of interest is fluorescein isothiocyanate (FITC) dye conjugated to target agents, e.g., antibody agents. DAR molar ratio is defined as a ratio of moles of drug/moiety of interest to moles of target agent/antibody. Molarity is calculated from absorbance of FITC (A485) and antibody (A280) of conjugated product, and extinction coefficients of FITC and antibody using Beer-Lambert law. Correction coefficient 0.35 was used to correct for absorbance of FITC at 280 nm. Biotek Synergy H1 microplate reader and Take3 microvolume plate were used for absorbance measurements. Concentration of antibody was at least 3 mg/mL for optimal signal-to-noise in the readings. Certain target binding moieties that can provide higher DAR compared to equivalent controls (absence of target binding moieties) were selected as hits for further analysis. Certain assessment data were provided below as examples.

A further test concerns Cetuximab. The test is described as above. Type of test: biochemical. The settings on record: 2.5 M eq reagent, phosphate buffer saline pH 7.4, 4 h, 25 C; Drug = FITC. On the procedure: as §1, §2, §3
Reactions were set up with antibodies using 2.5 M eq of indicated reagent in phosphate buffer saline pH 7.4 for 4 h at 25° C. DAR is Drug to antibody ratio, in this case “Drug” is FITC and DAR is measured using FITC absorbance.

The mark [1] stands for this setting: 2.5 M eq reagent, phosphate buffer saline pH 7.4, 4 h, 25 C, Drug = FITC.
The mark [2] stands for this setting: antibody 1 mg/mL, 2.5 M eq, 25 C, 20 h, PBS pH 7.4.
Where [3] appears, read: antibody 1 mg/mL, 3 M eq, 25 C, 20 h, PBS pH 7.4.
Setting [4] is: antibody 1 mg/mL, 3.5 M eq, 25 C, 20 h, PBS pH 7.4.
The mark [5] stands for this setting: antibody 4 mg/mL, 2.5 M eq, 25 C, 20 h, PBS pH 7.4.
Where [6] appears, read: antibody 4 mg/mL, 3 M eq, 25 C, 20 h, PBS pH 7.4.
[7] abbreviates: antibody 4 mg/mL, 3.5 M eq, 25 C, 20 h, PBS pH 7.4.

Structures are written as SMILES. Non-standard residues stand in square brackets, D forms with d. Residues, ends and D or L forms follow the SMILES beside them. *: point of attachment. X2 = O=C(CCOCCOCCOCCOCCOCCOCCNC(=S)Nc1ccc2c(c1)C(=O)OC21c2ccc(O)cc2Oc2cc(O)ccc21)Oc1c(F)cc(CN*)cc1F; PEG4 = NCCOCCOCCOCCOCCC(=O)O

Turning to `CC(=O)NCC(=O)N[C@@H](CO)C(=O)N[C@@H](Cc1ccc(O)cc1)C(=O)N[C@@H](Cc1c[nH]c2ccccc12)C(=O)N[C@@H](Cc1ccc(O)cc1)C(=O)N[C@@H](CC(=O)O)C(=O)N[C@H](C(=O)N[C@@H](Cc1c[nH]c2ccccc12)C(=O)N[C@@H](Cc1ccccc1)C(=O)NCCOCCOCCOCCOCCC(=O)NCc1cc(F)c(OC(=O)CCOCCOCCOCCOCCOCCOCCNC(=S)Nc2ccc3c(c2)C(=O)OC32c3ccc(O)cc3Oc3cc(O)ccc32)c(F)c1)C(C)C` [Compound I-45] (Ac-GSYWYDVWF[PEG4]-X2), the DAR in the test on daratumumab (setting [1]) is given as 0.64; in the test with daratumumab (setting [2]) it was 0.90; in the test on daratumumab (setting [3]), 0.96; with daratumumab (setting [4]), 1.06; with daratumumab (setting [5]), 1.04; in the test with daratumumab (setting [6]), 1.09. In the test with daratumumab (setting [7]), the DAR was 1.06. The “DAR Daratumumab” value in the test with daratumumab (setting [1]) amounted to 0.64. For the same compound, the “Fold (DAR I-45 over I-9)” value turned out to be 4.78 in the test with daratumumab (setting [2]); 5.31 with daratumumab (setting [3]); 4.39 in the test on daratumumab (setting [4]); 2.81 in the test on daratumumab (setting [5]); 2.23 with daratumumab (setting [6]); 2.40 with daratumumab (setting [7]). The “FITC DAR” value in the test with daratumumab (sample (a) of FIG. 12 / FIG. 13) is 0.43. Further, the “DAR Cetuximab” value with Cetuximab is listed as 0.70.

For `CC(=O)NCc1cc(F)c(OC(=O)CCOCCOCCOCCOCCOCCOCCNC(=S)Nc2ccc3c(c2)C(=O)OC32c3ccc(O)cc3Oc3cc(O)ccc32)c(F)c1` [Compound I-9], the DAR in the test with daratumumab (setting [1]) is given as 0.06; in the test on daratumumab (10 M eq reagent, Bicarbonate buffer pH 8.3, 2 h, 37 C, Drug = FITC), 1.10; in the test on daratumumab (setting [2]) it was 0.19; in the test on daratumumab (setting [3]), 0.18; with daratumumab (setting [4]), 0.24; with daratumumab (setting [5]) it was 0.37. The figures for the DAR with daratumumab (setting [6]) and in the test with daratumumab (setting [7]) were 0.49 and 0.44, respectively. Also, the “DAR Daratumumab” value in the test with daratumumab (setting [1]) stood at 0.06. In addition, the “DAR Cetuximab” value in the test with Cetuximab was 0.03.
